Results: US9580465B2, “Tissue protective peptides and peptide analogs for preventing and treating diseases and disorders associated with tissue damage” (ARAIM PHARMACEUTICALS, INC., priority 2008, dated 2017)
“Also recorded” adds a separate entry of the source. Square brackets hold non-standard residues; d marks the D form. pGlu = O=C1CC[C@@H](C(=O)O)N1

Key:
[1] = tested on: full-thickness skin wounds; experiment: Full thickness punch biopsy model of wound healing; assay type: in vivo, Sprauge-Dawley rats; details: 24 nmol/kg of bw s.c. daily for 10 days; FIG. 8
Method: A full thickness punch biopsy model of wound healing was used to evaluate Peptide ID. In this experiment, 3.5 mm-diameter full-thickness skin wounds were placed at the corners of a 3 cm-wide square on the shaved and depilated scapular region of Sprauge-Dawley rats. Peptide ID (24 nmol/kg of bw, 9 rats) or PBS (9 rats) was administered subcutaneously daily for 10 days.

histamine = experiment: Histamine induced ear inflammation; assay type: in vivo, Sprague Dawley rats; details: 30 μg/kg IV; 15, 30, 45 and sixty minutes; versus saline; FIG. 15
Method: The ability of peptides useful in the current therapeutic method to antagonize the pro-inflammatory affects of histamine were evaluated in a mouse model of histamine-induced edema disclosed in Brand et al. “Tea tree oil reduces histamine-induced oedema in murine ears,” Inflamm. Res. 51 (2002) 283-289. Briefly, 24 Sprague Dawley rats (male, 250 gm) were used in the study. Prior to the histamine challenge, each rat was anesthetized and the thickness of the rat's ear was measured using a spring loaded micrometer. 20 ul of 60 mg/ml solution of histamine diphosphate was injected intradermally into an ear of the rat and 30 seconds later the rat received either (1) 30 μg/kg Peptide ID IV (12 rats) or (2) Saline IV (12 rats). Then 20 ul of 60 mg/ml solution of histamine diphosphate was injected intradermally to the rat's other ear. The thickness of the rats ears was then measured using a caliper at 15, 30, 45 and sixty minutes following the histamine challenge.

[2] = In vivo assessment of erythropoietic activity, 28 days i.v. in rats; set-up: species or system Sprague Dawley rats; details: 0, 60, 180, 600 μg/kg per dose i.v. twice a day for 28 days; blood on day 29; FIG. 2
Method: To evaluate the erythropoietic activity of tissue protective peptides and peptide analogs, Peptide ID was administered intravenously twice a day to Sprague Dawley rats for 28 days. Nine male and nine female rats were assigned to groups 1-4 receiving 0, 60, 180, and 600 μg/kg per dose (0, 48, 143, and 477 nmol/kg, respectively) of Peptide ID in PBS by bolus intravenous administration from days 1-28, Blood samples to assay for hematological variables were collected on day 29. Hemoglobin concentration was determined by use of an automated analyzer (Keska Corporation).

[3] = tested on: partial body irradiation of 15 Gy; experiment: Radiomitigating activity in a gastrointestinal screening assay; assay type: in vivo, C57BL/6 mice; details: 15 mice per group, 30 ug/kg subcutaneously from 24 hours, once a day, FIG. 22
Method: The ability of peptides useful in the current therapeutic method to mitigate the effects of a radioactive agent on the gastrointestinal system was evaluated in a murine model of radiation injury. Briefly, 30 C57BL/6 mice (male, 20-30 gm) were used in the study.
The radiation was administered to the mice using a Pantak HF320 X-ray (Agfa NDT Ltd., Reading, UK), operated at 300 kV, 10 mA. The X-ray tube has additional filtration to give a radiation quality of 2.3 mm Cu half-value layer (HVL). Mice had their head, thorax, and forelimbs shielded to protect their bone marrow and select for the GI response. The mice were restrained in a jig and positioned at a distance of 700 mm focus from the focus of the X-ray tube. Irradiation was delivered at a dose rate of 75.5 cGy/min (unshielded) and 70.0 cGy/min (shielded) for a period sufficient to expose the mice to 15 Gy of radiation.
At 24 hours following radiation, 15 of the mice were administered Peptide ID (30 ug/kg subcutaneously) and then once a day for the duration of the study and remaining 15 mice (control group) received PBS (subcutaneously) and then once a day for the duration of the study.
The mice were weighed and monitored once a day until signs of diarrhea and early euthanasia appeared, then twice a day.

UEQLERALNSS ([pGlu]EQLERALNSS-OH; also: acetate/ammonium mixed salt) [Peptide ID, first glutamine replaced with pyroglutamate]
area of open wound over treatment [1]: faster healing; also recorded: healed more rapidly | ear thickness (edema) after histamine challenge (histamine): reduced the amount of edema; also recorded: less inflammation | hemoglobin concentration [2]: no difference in any of the groups | number of mice surviving to day 20 [3]: 6 mice
